Data taken from article PMC11078990, “Identification and characterization of small molecule inhibitors of the LINE-1 retrotransposon endonuclease” (Nature Communications, 2024).
Where “and” joins values, the source holds several entries; their conditions need not be identical. Equal entries are not always repeated. Where two headings read alike, the source gives them in different places.

Tests used:
[1] = target: L1 EN (LINE-1 retrotransposon endonuclease domain) (Homo sapiens, UniProt O00370, N5T); experiment: Fluorescent oligonucleotide EN nicking activity assay; assay type: biochemical
Chain of L1 EN (LINE-1 retrotransposon endonuclease domain) (O00370 1-239 N5T): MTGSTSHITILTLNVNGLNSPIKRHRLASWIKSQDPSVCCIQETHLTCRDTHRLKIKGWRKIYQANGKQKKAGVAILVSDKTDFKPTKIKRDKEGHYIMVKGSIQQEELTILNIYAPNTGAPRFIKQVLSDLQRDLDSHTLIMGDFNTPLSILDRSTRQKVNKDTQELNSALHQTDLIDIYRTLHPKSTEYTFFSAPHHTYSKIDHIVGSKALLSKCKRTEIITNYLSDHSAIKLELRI

[2] = target: T1, APE1 (Homo sapiens, UniProt P27695); experiment: APE1 fluorescent oligonucleotide activity assay (abasic site substrate); assay type: biochemical; settings: for activity at 25 µM: read-out: APE1 activity (%)
T1 construct: purchased New England Biolabs (NEB) M0282S

[3] = tested on: HeLa Tet-On cells; settings: human
[4] = tested on: DNA fragmentation (comet tail length) in HeLa Tet-On cells expressing EN domain; experiment: Neutral comet assay, EN domain-only constructs; assay type: cell-based, human
[5] = tested on: L1 retrotransposition; experiment: HeLa dual-luciferase L1 retrotransposition assay; assay type: cell-based, human
[6] = tested on: substrate oligonucleotide used in the EN activity assay; assay type: binding; set-up: key to Binding Detected? (Y/N): Binding Detected? (Y/N); Binding Detected? (Y/N)
[7] = read-out: EN activity, percent of no inhibitor control

O=C(CCCCCCCCCCC(=O)Nc1cccc([N+](=O)[O-])c1)Nc1cccc([N+](=O)[O-])c1 [AD11]
EN activity, percent of no inhibitor control ([1]; 0.1 µM): 84.764% and 74.2098% | EN activity, percent of no inhibitor control ([1]; 0.5 µM): 87.7394% and 79.0744% | EN activity, percent of no inhibitor control ([1]; 1 µM): 78.4622% and 83.3471% | EN activity, percent of no inhibitor control ([1]; 5 µM): 48.2874% and 49.6964% | EN activity, percent of no inhibitor control ([1]; 25 µM): 8.361% and 7.932% | EN activity, percent of no inhibitor control ([1]; 50 µM): 2.144% and 3.212% | EN activity, percent of no inhibitor control ([1]; 100 µM): 0.8407% and 0.78% and 1.633% | remaining activity at 0.1 µM [1, 7]: 87.2% | remaining activity at 0.5 µM [1, 7]: 73.3% | remaining activity at 1 µM [1, 7]: 78.1% | remaining activity at 5 µM [1, 7]: 54.9% | remaining activity at 25 µM [1, 7]: 6.58% | remaining activity at 50 µM [1, 7]: 2.44% | remaining activity at […] [1, 7]: 65.8% | APE1 percent activity, Replicate 1 [2]: 77.2032% | APE1 percent activity, Replicate 2 [2]: 89.204% | APE1 percent activity, Replicate 3 [2]: 71.7475% | APE1 percent activity, average [2]: 79.3849% | activity at 25 µM [2]: 79.4 ± 8.9% | PrestoBlue (viability), average [3]: 15.84 | Nuclei comet tail length, average (WT = 1) [4]: 0.8117 | L1 retrotransposition, average [5]: 2.364 and 2.4307 and 2.013 and 1.968 and 2.0024 and 1.896 and 1.695 and 1.484 | Luciferase (retrotransposition), average [5]: 3.993 | Luciferase (retrotransposition), replicates [5]: 4.575 and 4.225 and 3.621 and 3.549 | Binding Detected? (Y/N) [6]: N

O=C(NCCCCCCNC(=O)Nc1cccc([N+](=O)[O-])c1)Nc1cccc([N+](=O)[O-])c1 [AD32]
EN activity, percent of no inhibitor control ([1]; 1 µM): 89.1778% and 95.2749% | EN activity, percent of no inhibitor control ([1]; 5 µM): 106.426% and 105.894% | EN activity, percent of no inhibitor control ([1]; 20 µM): 107.498% and 97.7763% and 80.1287% | EN activity, percent of no inhibitor control ([1]; 50 µM): 115.028% and 130.021% and 99.6138% | EN activity, percent of no inhibitor control ([1]; 100 µM): 108.576% and 99.1955% | EN activity, percent of no inhibitor control ([1]; 250 µM): 76.4578% and 67.7464% | EN activity, percent of no inhibitor control ([1]; 500 µM): 42.369% and 27.0684% | EN activity, percent of no inhibitor control ([1]; 750 µM): 20.3358% and 21.9713% | EN activity, percent of no inhibitor control ([1]; 1000 µM): 5.092% and 3.166% and 2.499% | remaining activity at 1 µM [1, 7]: 93.7% | remaining activity at 5 µM [1, 7]: 103% | remaining activity at 100 µM [1, 7]: 106% | remaining activity at 250 µM [1, 7]: 71.9% | remaining activity at 500 µM [1, 7]: 46.5% | remaining activity at 750 µM [1, 7]: 20.5% | APE1 percent activity, Replicate 1 [2]: 105.807% | APE1 percent activity, Replicate 2 [2]: 106.706% | APE1 percent activity, Replicate 3 [2]: 111.118% | APE1 percent activity, average [2]: 107.877% | Percent APE1 activity, average [2]: 120.4% | Percent APE1 activity, replicates [2]: 115.512% and 123.038% and 122.705% | activity at 25 µM [2]: 108 ± 2.8% | PrestoBlue (viability), average [3]: 14.98 | Nuclei comet tail length, average (WT = 1) [4]: 0.6103 | Effect on L1 retrotransposition [5]: some activity in the retrotransposition assay | Luciferase (retrotransposition), average [5]: 1.01 | Luciferase (retrotransposition), replicates [5]: 1.2931 and 0.8621 and 0.8883 and 0.9964 | Binding Detected? (Y/N) [6]: N

C[C@H]1C[C@H](C)CN(CCCNc2ccc(C(=O)Nc3ccc(C(F)(F)F)cc3)cc2[N+](=O)[O-])C1 [AD9]
EN activity, percent of no inhibitor control ([1]; [Inhibitor] 2 μM, technical replicates 1-3, Fig. 2b source data, 2 µM): 91.056% and 80.4005% | remaining activity at 2 µM ([1]; [Inhibitor] 2 μM, technical replicates 1-3, Fig. 2b source data, read-out: EN activity, percent of no inhibitor control): 100% | EN activity, percent of no inhibitor control ([1]; [Inhibitor] 10 μM, technical replicates 1-3, Fig. 2b source data, 10 µM): 101.14% (2×) and 73.8761% | EN activity, percent of no inhibitor control ([1]; [Inhibitor] 25 μM, technical replicates 1-3, Fig. 2b source data, 25 µM): 96.0191% | remaining activity at 25 µM ([1]; [Inhibitor] 25 μM, technical replicates 1-3, Fig. 2b source data, read-out: EN activity, percent of no inhibitor control): 109% | EN activity, percent of no inhibitor control ([1]; [Inhibitor] 50 μM, technical replicates 1-3, Fig. 2b source data, 50 µM): 139.387% and 77.4751% and 117.995% | EN activity, percent of no inhibitor control ([1]; [Inhibitor] 100 μM, technical replicates 1-3, Fig. 2b source data, 100 µM): 89.4903% | remaining activity at 100 µM ([1]; [Inhibitor] 100 μM, technical replicates 1-3, Fig. 2b source data, read-out: EN activity, percent of no inhibitor control): 85.7% | EN activity, percent of no inhibitor control ([1]; [Inhibitor] 250 μM, technical replicates 1-3, Fig. 2b source data, 250 µM): 70.6219% | remaining activity at 250 µM ([1]; [Inhibitor] 250 μM, technical replicates 1-3, Fig. 2b source data, read-out: EN activity, percent of no inhibitor control): 83.4% | EN activity, percent of no inhibitor control ([1]; [Inhibitor] 500 μM, technical replicates 1-3, Fig. 2b source data, 500 µM): 47.0918% | remaining activity at 500 µM ([1]; [Inhibitor] 500 μM, technical replicates 1-3, Fig. 2b source data, read-out: EN activity, percent of no inhibitor control): 45.2% | EN activity, percent of no inhibitor control ([1]; [Inhibitor] 1000 μM, technical replicates 1-3, Fig. 2b source data, 1000 µM): 38.5425% | remaining activity at 1000 µM ([1]; [Inhibitor] 1000 μM, technical replicates 1-3, Fig. 2b source data, read-out: EN activity, percent of no inhibitor control): 31.3% | EN activity, percent of no inhibitor control ([1]; [Inhibitor] 2000 μM, technical replicates 1-3, Fig. 2b source data, 2000 µM): 14.4137% | remaining activity at 2000 µM ([1]; [Inhibitor] 2000 μM, technical replicates 1-3, Fig. 2b source data, read-out: EN activity, percent of no inhibitor control): 28.7% | Percent APE1 activity, average ([2]; 250 µM, Supplementary Fig. 6b, n=3): 100.1% | Percent APE1 activity, replicates ([2]; 250 µM, Supplementary Fig. 6b, replicates 1-3): 118.893% and 92.7882% and 88.5535% | APE1 percent activity, Replicate 1 ([2]; compound at 25 μM, Replicate 1): 119.501% | APE1 percent activity, Replicate 2 ([2]; compound at 25 μM, Replicate 2): 114.522% | APE1 percent activity, Replicate 3 ([2]; compound at 25 μM, Replicate 3): 113.798% | APE1 percent activity, average ([2]; compound at 25 μM, average of 3 replicates): 115.94% | activity at 25 µM ([2]; inhibitors at 25 μM, relative to 0 μM inhibitor control, mean ± s.d., 3 independent experiments): 116 ± 3.1% | PrestoBlue (viability), average ([3]; 48 h, 50 μM): 17.51 | L1 retrotransposition, average ([5]; 0.2 μM inhibitor, average of 4 replicates, Figure 4b concentration-dependent inhibition): 1.898 | L1 retrotransposition, average ([5]; 0.5 μM inhibitor, average of 4 replicates, Figure 4b): 2.458 | L1 retrotransposition, average ([5]; 1 μM inhibitor, average of 4 replicates, Figure 4b): 2.133 | L1 retrotransposition, average ([5]; 5 μM inhibitor, average of 4 replicates, Figure 4b): 1.566 | L1 retrotransposition, average ([5]; 10 μM inhibitor, average of 4 replicates, Figure 4b): 0.7154 | L1 retrotransposition, average ([5]; 20 μM inhibitor, average of 4 replicates, Figure 4b): 1.222 | L1 retrotransposition, average ([5]; 35 μM inhibitor, average of 4 replicates, Figure 4b): 0.4788 | Luciferase (retrotransposition), average ([5]; Figure 4a Graph 2, 50 μM, 0 μM average 9.679): 2.116 | Luciferase (retrotransposition), replicates ([5]; Figure 4a Graph 2, 50 μM, Replicates 1-4, 0 μM average 9.679): 3.949 and 1.344 and 2.584 and 0.5874 | Effect on L1 retrotransposition ([5]; HeLa cells): some activity in the retrotransposition assay | Binding Detected? (Y/N) [6]: N
